# Test results from patent publication US9586931B2 (Merck Sharp & Dohme Corp., priority 2012, dated 2017).
# Where “and” joins values, the source holds several entries; their conditions need not be identical. Equal entries are not always repeated.
# Target: T1, recombinant human GST-Syk (Homo sapiens, UniProt P43405)
# T1 construct: purchased Carna Biosciences 08-176
# Assay: Homogeneous Time-Resolved Fluorescence (HTRF) assay for the recombinant human Syk enzyme
# Assay type: biochemical
# Settings: recombinant human GST-Syk 5 pM, ATP 25 μM, 10-dose titration 10 μM to 0.508 nM; read-out: rhSYK Activity IC50
# Procedure, shortened: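 Detection used time-resolved fluorescence 30 min after adding a quench mix (40 mM EDTA, 15 mM Tris pH 7.5, 0.01% Tween 20) containing 2 nM Europium anti-pTyr antibody and 70 nM streptavidin-APC. This followed 45 min of room-temperature peptide phosphorylation by recombinant GST-tagged human Syk.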
row,SMILES,IC50
1,"Cc1cc(Nc2cc(C(F)(F)F)ccn2)nc(-c2cn(-c3ncccc3Cl)nn2)c1 [Example 6.1, 6-(1-(3-Chloropyridin-2-yl)-1H-1,2,3-triazol-4-yl)-4-methyl-N-(4-(trifluoromethyl)pyridin-2-yl)pyridin-2-amine]",41 nM
2,"Cc1cc(Nc2cc(C(F)(F)F)ccn2)nc(-c2cn(C[C@H](O)CO)nn2)c1 [Example 5.7, (2S)-3-[4-(4-methyl-6-{[4-(trifluoromethyl)pyridin-2-yl]amino}pyridin-2-yl)-1H-1,2,3-triazol-1-yl]propane-1,2-diol]",7.3 nM and 3.4 nM
3,"Cc1cc(Nc2cc(C(F)(F)F)ccn2)nc(-c2cn(C(C)c3ccc(C(=O)O)cc3)nn2)c1 (racemic) [Example 5.41, 4-{1-[4-(4-methyl-6-{[4-(trifluoromethyl)pyridin-2-yl]amino}pyridin-2-yl)-1H-1,2,3-triazol-1-yl]ethyl}benzoic acid]",1.1 nM
4,"Cc1cc(Nc2cc(C(F)(F)F)ccn2)nc(-c2cn(C3CS(=O)(=O)CC3O)nn2)c1 (stereo not drawn) [Example 5.90, 4-[4-(4-methyl-6-{[4-(trifluoromethyl)pyridin-2-yl]amino}pyridin-2-yl)-1H-1,2,3-triazol-1-yl]tetrahydrothiophene-3-ol 1,1-dioxide]",11.5 nM
5,"CCCC(C(=O)OCC)n1cc(-c2cc(C)cc(Nc3cc(C(F)(F)F)ccn3)n2)nn1 (racemic) [Example 5.27, ethyl 2-[4-(4-methyl-6-{[4-(trifluoromethyl)pyridin-2-yl]amino}pyridin-2-yl)-1H-1,2,3-triazol-1-yl]pentanoate]",146 nM
6,"Cc1cc(Nc2cc(C(F)(F)F)ccn2)nc(-c2cn([C@H](C)C(=O)NCC(=O)O)nn2)c1 [Example 3.14, N-{(2R)-2-[4-(4-methyl-6-{[4-(trifluoromethyl)pyridin-2-yl]amino}pyridin-2-yl)-1H-1,2,3-triazol-1-yl]propanoyl}glycine]",9.6 nM
7,"Cc1cc(Nc2cc(C(F)(F)F)ccn2)nc(-c2cn(C[C@@H](O)CO)nn2)c1 [Example 5.19, (2R)-3-[4-(4-methyl-6-{[4-(trifluoromethyl)pyridin-2-yl]amino}pyridin-2-yl)-1H-1,2,3-triazol-1-yl]propane-1,2-diol]",4 nM
8,"Cc1cc(Nc2nccc(C(F)(F)F)n2)cc(-c2cn(C[C@H](O)CO)nn2)c1 [Example 5.24, (2S)-3-[4-(3-methyl-5-{[4-(trifluoromethyl)pyrimidin-2-yl]amino}phenyl)-1H-1,2,3-triazol-1-yl]propane-1,2-diol]",24.6 nM
9,"Cc1cc(Nc2cc(C(F)(F)F)ccn2)nc(-c2cn(-c3ccc(C(N)=O)cc3)nn2)c1 [Example 1.15, 4-[4-(4-methyl-6-{[4-(trifluoromethyl)pyridin-2-yl]amino}pyridin-2-yl)-1H-1,2,3-triazol-1-yl]benzamide]",15.4 nM
10,"Cc1cc(Nc2nccc(C(F)(F)F)n2)cc(-c2cn(C3CCC(C(=O)O)CC3)nn2)c1 (stereo not drawn) [Example 3.16, 4-[4-(3-methyl-5-{[4-(trifluoromethyl)pyrimidin-2-yl]amino}phenyl)-1H-1,2,3-triazol-1-yl]cyclohexanecarboxylic acid]",33.3 nM
11,"Cc1cc(Nc2nccc(C(F)(F)F)n2)cc(-c2cn(Cc3ccc(CC(=O)O)cc3)nn2)c1 [Example 5.2, (4-{[4-(3-methyl-5-{[4-(trifluoromethyl)pyrimidin-2-yl]amino}phenyl)-1H-1,2,3-triazol-1-yl]methyl}phenyl)acetic acid]",4.4 nM
12,"Cc1cc(Nc2cc(C(F)(F)F)ccn2)nc(-c2c[nH]nn2)c1 [Example 5.101, 4-methyl-6-(1H-1,2,3-triazol-4-yl)-N-[4-(trifluoromethyl)pyridin-2-yl]pyridin-2-amine]",25.2 nM
13,"Cc1cc(Nc2cc(C(F)(F)F)ccn2)nc(-c2cn(Cc3cnc(C)[nH]3)nn2)c1 [Example 5.104, 4-methyl-6-{1-[(2-methyl-1H-imidazol-5-yl)methyl]-1H-1,2,3-triazol-4-yl}-N-[4-(trifluoromethyl)pyridin-2-yl]pyridin-2-amine]",3.2 nM
14,"Cc1cc(Nc2cc(C(F)(F)F)ccn2)nc(-c2cn(C(C)C(=O)NCc3cccc4nsnc34)nn2)c1 (stereo not drawn) [Example 1.33, N-(2,1,3-benzothiadiazol-4-ylmethyl)-2-[4-(4-methyl-6-{[4-(trifluoromethyl)pyridin-2-yl]amino}pyridin-2-yl)-1H-1,2,3-triazol-1-yl]propanamide]",325 nM
15,"Cc1cc(Nc2nccc(C(F)(F)F)n2)cc(-c2cn(CCN)nn2)c1 [Example 5.74, N-{3-[1-(2-aminoethyl)-1H-1,2,3-triazol-4-yl]-5-methylphenyl}-4-(trifluoromethyl)pyrimidin-2-amine]",187 nM
16,"Cc1cc(Nc2nccc(C(F)(F)F)n2)cc(-c2cn(CC#N)nn2)c1 [Example 5.78, [4-(3-methyl-5-{[4-(trifluoromethyl)pyrimidin-2-yl]amino}phenyl)-1H-1,2,3-triazol-1-yl]acetonitrile]",84.1 nM
17,"Cc1ccnc(Nc2cc(C)cc(-c3cn(CC(O)C(F)(F)F)nn3)n2)c1 (racemic) [Example 5.17, 1,1,1-trifluoro-3-(4-{4-methyl-6-[(4-methylpyridin-2-yl)amino]pyridin-2-yl}-1H-1,2,3-triazol-1-yl)propan-2-ol]",128 nM
18,"Cc1cc(Nc2cc(C(C)(C)C)ccn2)nc(-c2cn(C(C)c3ccc(C(=O)O)cc3)nn2)c1 (stereo not drawn) [Example 2.12, 4-[1-(4-{6-[(4-tert-butylpyridin-2-yl)amino]-4-methylpyridin-2-yl}-1H-1,2,3-triazol-1-yl)ethyl]benzoic acid]",5.5 nM

# Now from value to molecule:
row,IC50,SMILES
1,13.2 nM,"Cc1cc(Nc2nccc(C(F)(F)F)n2)cc(-c2cn(CC(C)(O)C(C)(C)O)nn2)c1 (stereo not drawn) [Example 21.28, 2,3-dimethyl-1-[4-(3-methyl-5-{[4-(trifluoromethyl)pyrimidin-2-yl]amino}phenyl)-1H-1,2,3-triazol-1-yl]butane-2,3-diol]"
2,2.2 nM,"Cc1cc(Nc2cc(C(F)(F)F)ccn2)nc(-c2cn(C(C)CO)nn2)c1 (stereo not drawn) [Example 18.1, 2-[4-(4-Methyl-6-{[4-(trifluoromethyl)pyridin-2-yl]amino}pyridin-2-yl)-1H-1,2,3-triazol-1-yl]propan-1-ol]"
3,54 nM,"Cc1cc(Nc2cc(C(F)(F)F)ccn2)nc(-c2cn(C3C=CCCCC3)nn2)c1 (stereo not drawn) [Example 9.2, 6-(1-cyclohept-2-en-1-yl-1H-1,2,3-triazol-4-yl)-4-methyl-N-[4-(trifluoromethyl)-pyridin-2-yl]pyridin-2-amine]"
4,88 nM,"Cc1cc(Nc2nccc(C(F)(F)F)n2)cc(-n2cc(CC(C)(C)C(=O)O)nn2)c1 [Example 15.13, 2,2-dimethyl-3-[1-(3-methyl-5-{[4-(trifluoromethyl)pyrimidin-2-yl]amino}phenyl)-1H-1,2,3-triazol-4-yl]propanoic acid]"
5,5.4 nM,"Cc1cc(Nc2nccc(C(F)F)n2)cc(-c2cn(CC3CNC(=O)C3)nn2)c1 (single isomer, unassigned) [Example 28.2, 4-((4-(3-((4-(difluoromethyl)pyrimidin-2-yl)amino)-5-methylphenyl)-1H-1,2,3-triazol-1-yl)methyl)pyrrolidin-2-one]"
6,11.1 nM,"Cc1cc(Nc2ncc(F)c(C(F)F)n2)cc(-c2cn(CC3OC(=O)NC34CC4)nn2)c1 (single isomer, unassigned) [Example 7.33, 7-{[4-(3-{[4-(difluoromethyl)-5-fluoropyrimidin-2-yl]amino}-5-methylphenyl)-1H-1,2,3-triazol-1-yl]methyl}-6-oxa-4-azaspiro[2.4]heptan-5-one]"
